In data set [1] the test system is antioxidant response element (ARE). The experiment in a line: ARE luciferase reporter assay in HepG2-ARE-C8 cells. The note with it: HepG2-ARE-C8, 12 h of treatment, mean ± SD n = 3, read-out: ARE Inductivity in Luciferase Reporter Assay (induction fold). The format is cell-based. Here is the method:
(§1) All the derivatives were evaluated for their ability to induce ARE in HepG2-ARE-C8 cell (HepG2 cells stably transfected with a luciferase reporter) by ARE luciferase reporter assay, and they were compared to the lead compound 2. At the same time, cytotoxicity studies were performed by the MTT assay against the HCT116 cells. The results of cytotoxic activity in vitro were expressed as the IC50 [18]. Because those compounds were designed for chemoprevention, they should not be cytotoxic.
HepG2-ARE-C8 cells (4 × 10^4 cells/well) were incubated overnight in 96-well plates, and then treated with different concentrations of test compounds. tBHQ was used as a positive control, DMSO was used as a negative control, and the luciferase cell culture lysis reagent was used as a blank. The medium was removed after 12 h treatment. Then, the cells were harvested in the luciferase cell culture lysis reagent together with 100 μL of cold PBS. Then, centrifuging the solution and 20 μL of the supernatant was used for determining the luciferase activity. The luciferase activity was measured by a Luminoskan Ascent (Thermo Scientific, Waltham, MA, USA). The data were obtained in triplicate and expressed as fold induction over the control. Induction fold = (RLUtest − RLUblank)/(RLUDMSOcontrol − RLUblank). RLU = relative light unit l.

Data set [2] in a line: MTT cell viability (cytotoxicity) assay. The class given is cell-based. The note with it: human, HCT116 cells. Here is the method: as §1
Cell viabilities were determined by using 3-[4,5-dimethylthiazol-2-yl]-2,5-diphenyltetrazolium bromide (MTT) assay. MTT was dissolved in (phosphate buffered solution) PBS to a concentration of 5 mg/mL. HCT116 cells (8 × 10^3 cells/well) were plated in 96-well plates and incubated overnight. Different concentrations of test compounds were added to each cell for 24 h at 37 °C, and the 20 μL MTT solution was added and incubated for an additional 4 h. Then, 100 μL of DMSO was added to dissolve formazan precipitate after the solution was removed. The OD value was determined at 570 nm by Elx800 absorbance microplate reader (BioTek, Winooski, VT, USA). IC50 value (concentration at which cell survival equals 50% of control) = […].

With `O=C(C=C1NCC2c3ccccc3CCN2C1=O)C1CCCC1` (centres unmarked) [Compound 2d, 3-(2-cyclopentyl-2-oxoethylidene)-1,2,3,6,7,11b-hexahydro-4H-pyrazino[2,1-a]isoquinolin-4-one], the melting point was 185 to 187 °C. Also, in data set [1], the fold induction at 0.1 µM was 1.06 ± 0.09, the fold induction at 1 µM is 3.19 ± 0.52, the fold induction at 5 µM was 4.06 ± 0.3 and the fold induction at 10 µM came to 7.38 ± 0.31. For the same compound, in data set [1], the fold induction at 50 µM was determined as 5.22 ± 1.28 and the fold induction at 100 µM came out at 5.83 ± 0.38. In data set [2], half-maximal inhibition (IC50 at 24 h) was put at 161 µM.
`O=C(C=C1NCC2c3ccccc3CCN2C1=O)C1CCCCC1` (centres unmarked) [Compound 2e, 3-(2-cyclohexyl-2-oxoethylidene)-1,2,3,6,7,11b-hexahydro-4H-pyrazino[2,1-a]isoquinolin-4-one] yielded a melting point of 203 to 205 °C. In addition, in data set [1], the fold induction at 0.1 µM stood at 1.92 ± 0.82, the fold induction at 1 µM was 2.17 ± 1.05, the fold induction at 5 µM was 3.03 ± 0.68 and the fold induction at 10 µM worked out at 3.49 ± 0.64. In data set [1], the fold induction at 50 µM was found to be 3.92 ± 0.53 and the fold induction at 100 µM came to 8.31 ± 0.25. This compound also gave a half-inhibitory concentration (IC50) at 24 h in data set [2] above 300 µM.
For the compound `O=C(C=C1NCC2c3ccccc3CCN2C1=O)C1=CCCCC1` (centres unmarked) [Compound 2f, 3-(2-(cyclohex-1-en-1-yl)-2-oxoethylidene)-1,2,3,6,7,11b-hexahydro-4H-pyrazino[2,1-a]isoquinolin-4-one], the melting point lay within 180 to 182 °C. In data set [1], the fold induction at 0.1 µM is 3.27 ± 1.59, the fold induction at 1 µM was 2.1 ± 0.59, the fold induction at 5 µM was found to be 5.46 ± 1.83 and the fold induction at 10 µM came to 8.45 ± 1.05. Further, in data set [1], the fold induction at 50 µM turned out to be 3.34 ± 1.05 and the fold induction at 100 µM stood at 3.07 ± 0.43. For the same compound, the IC50 at 24 h in data set [2] stood at 171 µM.
`O=C(C=C1NCC2c3ccccc3CCN2C1=O)c1c[nH]c2ccccc12` (centres unmarked) [Compound 2g, 3-(2-(1H-indol-3-yl)-2-oxoethylidene)-1,2,3,6,7,11b-hexahydro-4H-pyrazino[2,1-a]isoquinolin-4-one]: the melting point lay in the range of 270 to 272 °C. Besides, in data set [1], the fold induction at 0.1 µM worked out at 1.27 ± 0.52, the fold induction at 1 µM was found to be 2.31 ± 0.24, the fold induction at 5 µM worked out at 4.68 ± 0.29 and the fold induction at 10 µM was determined as 5.84 ± 0.07. Besides, in data set [1], the fold induction at 50 µM worked out at 14.5 ± 0.36 and the fold induction at 100 µM came to 9.69 ± 0.8. Further, the IC50 at 24 h in data set [2] was above 300 µM.
In the case of `O=C(C=C1NCC2c3ccccc3CCN2C1=O)c1cnc2ccccc2c1` (centres unmarked) [Compound 2h, 3-(2-oxo-2-(quinolin-3-yl)ethylidene)-1,2,3,6,7,11b-hexahydro-4H-pyrazino[2,1-a]isoquinolin-4-one], the melting point fell in the range of 245 to 247 °C. Also, in data set [1], the fold induction at 0.1 µM is 2.06 ± 0.98, the fold induction at 1 µM stood at 3.4 ± 0.02, the fold induction at 5 µM was found to be 3.62 ± 0.29 and the fold induction at 10 µM amounted to 4.59 ± 0.14. Also, in data set [1], the fold induction at 50 µM came out at 4.38 ± 1.94 and the fold induction at 100 µM is 4.98 ± 0.53. This compound yielded an IC50 at 24 h in data set [2] of 92.4 µM.
Turning to `O=C(C=C1NCC2c3ccccc3CCN2C1=O)c1ccc(N2CCOCC2)cc1` (centres unmarked) [Compound 2i, 3-(2-(4-morpholinophenyl)-2-oxoethylidene)-1,2,3,6,7,11b-hexahydro-4H-pyrazino[2,1-a]isoquinolin-4-one], the melting point was 235 to 237 °C. Moreover, in data set [1], the fold induction at 0.1 µM worked out at 1.71 ± 0.71, the fold induction at 1 µM was 1.88 ± 1.36, the fold induction at 5 µM came out at 1.37 ± 0.19 and the fold induction at 10 µM was found to be 1.66 ± 0.53. Further, in data set [1], the fold induction at 50 µM was 1.16 ± 0.63 and the fold induction at 100 µM turned out to be 1.42 ± 0.31. Moreover, inhibition in data set [2] was half-maximal at 237 µM (IC50 at 24 h).
Compound `O=C(C=C1NCC2CCCCN2C1=O)c1cccc(Cl)c1` (centres unmarked) [Compound 3c, 3-(2-(3-chlorophenyl)-2-oxoethylidene)octahydro-4H-pyrido[1,2-a]pyrazin-4-one] registered a melting point of 157 to 159 °C. For the same compound, in data set [1], the fold induction at 0.1 µM was 1.85 ± 0.21, the fold induction at 1 µM stood at 8.41 ± 0.04, the fold induction at 5 µM worked out at 10.2 ± 3.44 and the fold induction at 10 µM worked out at 11.4 ± 1.12. In data set [1], the fold induction at 50 µM came out at 1.13 ± 1.03 and the fold induction at 100 µM stood at 1.33 ± 0.19. The IC50 at 24 h in data set [2] turned out to be 174 µM.
Turning to `O=C(C=C1NCC2CCCCN2C1=O)c1cccc([N+](=O)[O-])c1` (centres unmarked) [Compound 3d, 3-(2-(3-nitrophenyl)-2-oxoethylidene)octahydro-4H-pyrido[1,2-a]pyrazin-4-one], the melting point lay in the range of 174 to 176 °C. Also, in data set [1], the fold induction at 0.1 µM is 1.96 ± 0.88, the fold induction at 1 µM came to 3.85 ± 1, the fold induction at 5 µM came to 12 ± 2.55 and the fold induction at 10 µM was found to be 19.5 ± 3.09. Also, in data set [1], the fold induction at 50 µM was determined as 47.6 ± 3.54 and the fold induction at 100 µM came out at 8.66 ± 3.27. The compound also displayed an IC50 at 24 h in data set [2] of 181 µM.
The compound `COc1cccc(C(=O)C=C2NCC3CCCCN3C2=O)c1` (centres unmarked) [Compound 3e, 3-(2-(3-methoxyphenyl)-2-oxoethylidene)octahydro-4H-pyrido[1,2-a]pyrazin-4-one] displayed a melting point of 133 to 135 °C. Also, in data set [1], the fold induction at 0.1 µM was 1.4 ± 1.21, the fold induction at 1 µM was 1.82 ± 1.15, the fold induction at 5 µM is 6.59 ± 0.77 and the fold induction at 10 µM stood at 9.16 ± 0.42. In data set [1], the fold induction at 50 µM was 9.36 ± 3.76 and the fold induction at 100 µM is 1.44 ± 1.75. The compound further returned a 50% inhibitory concentration (IC50) at 24 h in data set [2] above 300 µM.
In turn, `O=C(C=C1NCC2CCCCN2C1=O)c1ccc(-c2ccccc2)cc1` (centres unmarked) [Compound 3f, 3-(2-([1,1′-biphenyl]-4-yl)-2-oxoethylidene)octahydro-4H-pyrido[1,2-a]pyrazin-4-one] gave a melting point of 197 to 199 °C. For the same compound, in data set [1], the fold induction at 0.1 µM was found to be 2.96 ± 0.66, the fold induction at 1 µM was 2.21 ± 0.52, the fold induction at 5 µM is 3.6 ± 0.42 and the fold induction at 10 µM turned out to be 1.76 ± 0.1. In data set [1], the fold induction at 50 µM is 2.47 ± 0.03 and the fold induction at 100 µM is 2.69 ± 2.75. The IC50 at 24 h in data set [2] is 184 µM.
Consider `O=C(C=C1NCC2CCCCN2C1=O)c1cccs1` (centres unmarked) [Compound 3h, 3-(2-oxo-2-(thiophen-2-yl)ethylidene)octahydro-4H-pyrido[1,2-a]pyrazin-4-one], for which the melting point fell in the range of 182 to 184 °C. For the same compound, in data set [1], the fold induction at 0.1 µM was 2.06 ± 0.22, the fold induction at 1 µM stood at 2.12 ± 0.31, the fold induction at 5 µM amounted to 8.3 ± 2.55 and the fold induction at 10 µM is 10.5 ± 3.82. In data set [1], the fold induction at 50 µM is 28.9 ± 0.46 and the fold induction at 100 µM amounted to 1.63 ± 0.25. The same compound returned an IC50 at 24 h in data set [2] above 300 µM.
On to `O=C(C=C1NCC2CCCCN2C1=O)c1nccs1` (centres unmarked) [Compound 3i, 3-(2-oxo-2-(thiazol-2-yl)ethylidene)octahydro-4H-pyrido[1,2-a]pyrazin-4-one], for which the melting point lay within 151 to 153 °C. For the same compound, in data set [1], the fold induction at 0.1 µM was 1.52 ± 0.87, the fold induction at 1 µM worked out at 4.02 ± 3.05, the fold induction at 5 µM amounted to 6.41 ± 1.48 and the fold induction at 10 µM worked out at 9.28 ± 0.55. Also, in data set [1], the fold induction at 50 µM worked out at 13.5 ± 0.8 and the fold induction at 100 µM was found to be 16.7 ± 1.39. In data set [2], this compound came in with an IC50 at 24 h above 300 µM.
`O=C(C=C1NCC2CCCCN2C1=O)c1cccc2ccccc12` (centres unmarked) [Compound 3j, 3-(2-(naphthalen-1-yl)-2-oxoethylidene)octahydro-4H-pyrido[1,2-a]pyrazin-4-one] yielded a melting point of 151 to 153 °C. In addition, in data set [1], the fold induction at 0.1 µM came to 1.7 ± 0.19, the fold induction at 1 µM worked out at 2.34 ± 0.53, the fold induction at 5 µM worked out at 2.54 ± 0.99 and the fold induction at 10 µM is 3.52 ± 0.57. For the same compound, in data set [1], the fold induction at 50 µM was 3.85 ± 0.34 and the fold induction at 100 µM worked out at 1.96 ± 0.71. In data set [2], this compound gave an IC50 at 24 h of 264 µM.
